Laboratory results: patent US7585895B2, “Therapeutic substituted cyclopentanes” (Allergan, Inc., priority 2005, dated 2009)

Legend:
hIP = target: T1, hIP (Homo sapiens, UniProt P43119); assay: FLIPR calcium signal, IP; format: cell-based; settings: HEK-293(EBNA); for EC50: read-out: Ca2+ Signal-EC50 (nM) IP
T1 construct: expressed in transfected cells
Procedure, shortened: (§1)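 Stably transfected HEK-293(EBNA) cells loaded with 2 μM Fluo-4 AM in HBSS-HEPES pH 7.4, 37° C; peak fluorescence rise after compound addition (FLIPR, 488 nm excitation) expressed relative to buffer and standard agonist controls (PGE2 for EP subtypes, U-46619 for TP). Tested 10^−5 to 10^−11 M, duplicates, n≧3.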

EP2 = EP2 (Homo sapiens, UniProt P43116); assay: Competition binding, [3H]PGE2, EP2 (Ki); parameters: expressed in transfected cells; membranes or whole cells; settings: HEK 293 cells stably expressing human EP2, [3H]PGE2
Procedure, shortened: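 Membranes (~60 μg protein) or 2×10^5 HEK 293 cells stably expressing human EP2, in HBSS/20 mM Hepes pH 7.3 with [3H]PGE2 (10 nM), 60 min at 23° C, then filtration. Non-specific binding with 10 μM unlabeled PGE2; single-site fit IC50 converted to Ki using KD 40 nM.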

hFP = target: T2, hFP (Homo sapiens, UniProt P43088); assay: FLIPR calcium signal, FP; format: cell-based; settings: HEK-293(EBNA)
T2 construct: expressed in transfected cells
Procedure, shortened: as §1

EP4 receptors = target: T3, EP4 receptors (Homo sapiens, UniProt P35408); assay: Radioligand binding, [3H]PGE2, EP4 (Ki); settings: HEK-293 cells stably expressing EP4, [3H]PGE2
T3 construct: expressed in transfected cells; membrane pellet
Procedure, shortened: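 Membranes from HEK-293 cells stably expressing human EP4 were incubated 60 min at 25 °C with 5 nM [3H]PGE2 and competitor in TME buffer pH 7.4, then filtered over GF/B. Non-specific binding defined with 10^−5 M unlabeled PGE2; duplicate points, at least three experiments.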

hEP2/Gqs5 = target: T4, hEP2/Gqs5 (Homo sapiens, UniProt P43116); assay: FLIPR calcium signal, EP2; format: cell-based; settings: HEK-293(EBNA), value outside parentheses, read-out: Ca2+ Signal-EC50 (nM) EP2
T4 construct: expressed in transfected cells
Procedure, shortened: (§2)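 Stable HEK-293(EBNA) lines expressing recombinant human EP1, TP, or EP2/EP4 coupled via Gqs5; Fluo-4 AM loaded (2 μM, 45 min), HBSS-HEPES pH 7.4, 37° C. Peak FLIPR fluorescence expressed relative to buffer and standard agonist (PGE2 for EP receptors, U-46619 for TP); compounds at 10^−5 M or 10^−5–10^−11 M, duplicates, n≧3.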

hEP4/Gqs5 = target: T5, hEP4/Gqs5 (Homo sapiens, UniProt P35408); assay: FLIPR calcium signal, EP4; format: cell-based; settings: HEK-293(EBNA)
T5 construct: expressed in transfected cells
Procedure, shortened: as §2

T4 sequence (P43116 whole entry): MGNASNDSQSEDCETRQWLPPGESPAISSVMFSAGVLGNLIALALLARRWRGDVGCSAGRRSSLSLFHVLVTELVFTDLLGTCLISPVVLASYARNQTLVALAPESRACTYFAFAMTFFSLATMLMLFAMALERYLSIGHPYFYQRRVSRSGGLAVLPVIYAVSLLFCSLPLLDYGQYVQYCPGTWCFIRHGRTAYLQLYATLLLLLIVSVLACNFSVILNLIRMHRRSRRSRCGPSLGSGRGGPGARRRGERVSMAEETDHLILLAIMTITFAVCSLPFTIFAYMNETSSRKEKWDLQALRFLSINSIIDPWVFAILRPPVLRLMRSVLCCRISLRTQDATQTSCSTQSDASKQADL
EP2, sequence (P43116 whole entry): as above
T2 sequence (P43088 whole entry): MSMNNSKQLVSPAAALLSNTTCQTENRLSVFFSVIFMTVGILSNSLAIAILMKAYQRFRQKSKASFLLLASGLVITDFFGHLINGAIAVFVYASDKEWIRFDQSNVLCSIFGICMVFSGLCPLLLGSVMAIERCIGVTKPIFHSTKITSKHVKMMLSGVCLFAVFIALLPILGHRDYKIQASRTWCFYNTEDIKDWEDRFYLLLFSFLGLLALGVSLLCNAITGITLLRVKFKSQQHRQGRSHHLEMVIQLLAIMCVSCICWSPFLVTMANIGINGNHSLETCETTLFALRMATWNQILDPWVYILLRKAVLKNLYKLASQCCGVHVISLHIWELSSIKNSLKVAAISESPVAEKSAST
T3 sequence (P35408 whole entry): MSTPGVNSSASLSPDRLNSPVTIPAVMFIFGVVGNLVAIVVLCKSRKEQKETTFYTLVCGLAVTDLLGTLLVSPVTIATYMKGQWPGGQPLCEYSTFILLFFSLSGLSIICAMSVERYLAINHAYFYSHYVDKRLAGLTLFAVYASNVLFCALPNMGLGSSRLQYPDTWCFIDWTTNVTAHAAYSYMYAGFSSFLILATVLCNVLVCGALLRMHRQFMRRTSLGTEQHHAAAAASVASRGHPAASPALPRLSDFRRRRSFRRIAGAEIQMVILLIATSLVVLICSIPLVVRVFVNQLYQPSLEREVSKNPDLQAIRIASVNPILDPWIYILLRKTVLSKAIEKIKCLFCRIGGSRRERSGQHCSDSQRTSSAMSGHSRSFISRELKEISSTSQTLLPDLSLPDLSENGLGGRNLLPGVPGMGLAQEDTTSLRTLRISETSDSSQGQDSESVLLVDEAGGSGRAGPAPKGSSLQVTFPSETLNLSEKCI
T5 sequence (P35408 whole entry): as above
T1 sequence (P43119 whole entry): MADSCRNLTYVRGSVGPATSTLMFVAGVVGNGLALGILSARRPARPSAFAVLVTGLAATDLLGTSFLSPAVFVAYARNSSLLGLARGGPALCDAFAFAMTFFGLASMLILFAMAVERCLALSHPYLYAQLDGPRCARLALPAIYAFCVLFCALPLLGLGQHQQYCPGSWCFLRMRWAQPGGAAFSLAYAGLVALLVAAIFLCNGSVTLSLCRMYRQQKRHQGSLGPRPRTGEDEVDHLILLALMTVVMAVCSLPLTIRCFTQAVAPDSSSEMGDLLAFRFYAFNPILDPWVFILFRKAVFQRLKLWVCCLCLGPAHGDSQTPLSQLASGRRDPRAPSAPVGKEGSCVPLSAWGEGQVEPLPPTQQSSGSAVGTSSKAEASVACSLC

| SMILES | EC50 (hIP) [nM] | Ki (EP2) [nM] | Ca2+ Signal-EC50 (nM) FP (hFP) | BINDING-Ki (nM) EP4 (EP4 receptors) | EC50 (hEP2/Gqs5) [nM] | Ca2+ Signal-EC50 (nM) EP4 (hEP4/Gqs5) | Ki (EP4 receptors) [nM] | Ca2+ Signal-EC50 (nM) IP (hIP) | EC50 (hEP4/Gqs5; read-out: Ca2+ Signal-EC50 (nM) EP4) [nM] |
| --- | --- | --- | --- | --- | --- | --- | --- | --- | --- |
| O=C(O)CCC/C=C\C[C@@H]1[C@@H](c2ccc(C(O)c3ccccc3)cc2)[C@H](O)C[C@H]1Cl (stereo partly drawn) [Entry 28, (Z)-7-{(1R,2S,3R,5R)-5-Chloro-3-hydroxy-2-[4-(hydroxy-phenyl-methyl)-phenyl]-cyclopentyl}-hept-5-enoic acid] | 1650 | 564 | not active | not active | 142 | not active |  |  |  |
| CCCCCC(O)c1cccc([C@@H]2[C@@H](C/C=C\CCCC(=O)O)[C@H](Cl)C[C@H]2O)c1 (stereo partly drawn) [Entry 29, (Z)-7-{(1R,2S,3R,5R)-5-Chloro-3-hydroxy-2-[3-(1-hydroxy-hexyl)-phenyl]-cyclopentyl}-hept-5-enoic acid] | 8490 | 1390 | not active |  | 119 | not active | > 10000 |  |  |

Results, then the compound that gave them:

| EC50 (hIP) [nM] | Ki (EP2) [nM] | Ca2+ Signal-EC50 (nM) FP (hFP) | BINDING-Ki (nM) EP4 (EP4 receptors) | EC50 (hEP2/Gqs5) [nM] | Ca2+ Signal-EC50 (nM) EP4 (hEP4/Gqs5) | Ki (EP4 receptors) [nM] | Ca2+ Signal-EC50 (nM) IP (hIP) | EC50 (hEP4/Gqs5; read-out: Ca2+ Signal-EC50 (nM) EP4) [nM] | SMILES |
| --- | --- | --- | --- | --- | --- | --- | --- | --- | --- |
| 2060 | 1260 | not active |  | 68 | not active | > 10000 |  |  | CCCCC(O)c1cccc([C@@H]2[C@@H](C/C=C\CCCC(=O)O)[C@H](Cl)C[C@H]2O)c1 (stereo partly drawn) [Entry 30, (Z)-7-{(1R,2S,3R,5R)-5-Chloro-3-hydroxy-2-[3-(1-hydroxy-pentyl)-phenyl]-cyclopentyl}-hept-5-enoic acid] |
|  | 182 | not active |  | 544 | not active | 5410 | not active |  | CCCCCC(O)C(C)(C)c1ccc([C@@H]2[C@@H](C/C=C\CCCC(=O)O)[C@H](Cl)C[C@H]2O)cc1 (stereo partly drawn) [Entry 31, (Z)-7-{(1R,2S,3R,5R)-5-Chloro-3-hydroxy-2-[4-(2-hydroxy-1,1-dimethyl-heptyl)-phenyl]-cyclopentyl}-hept-5-enoic acid] |
|  | 83 | not active |  | 26 |  | > 10000 | not active | > 10000 | CCCCCCc1ccc([C@@H]2[C@@H](C/C=C\CCCC(=O)O)[C@H](Cl)C[C@H]2O)cc1 [Entry 33, (Z)-7-[(1R,2S,3R,5R)-5-Chloro-2-(4-hexyl-phenyl)-3-hydroxy-cyclopentyl]-hept-5-enoic acid] |
